ChEMBL document CHEMBL4673310, “Discovery of benzhydrol-oxaborole derivatives as Streptococcus pneumoniae leucyl-tRNA synthetase inhibitors” (Bioorg Med Chem, 2021)
≈ marks a conversion by molar mass, not a printed value. Calls of active or inactive are those of the source. The calls are words filed in the database; no cut-off is given here.

What was measured:
[1] = Inhibition of Streptococcus pneumoniae LeuRS using [3H]Leucine as substrate preincubated for 20 mins
Streptococcus pneumoniae = assay: Antibacterial activity against Streptococcus pneumoniae assessed as suppression of visible growth incubated for 24 hrs by CLSI-based broth microdilution method; type: functional

| Compound | IC50 [1] [µM] | MIC (Streptococcus pneumoniae) |
| --- | --- | --- |
| OB1OCc2ccc(C(O)c3cccc(Cl)c3)cc21 (centres undefined) | 23.7 |  |
| COC(=O)c1ccc(CSc2ccc(C(O)c3ccc4c(c3)B(O)OC4)cc2)cc1 (centres undefined) | 22.7 |  |
| Nc1ccc(CSc2ccc(C(O)c3ccc4c(c3)B(O)OC4)cc2)cc1 (centres undefined) | 11.7 |  |
| C[S+]([O-])c1ccc(C(O)c2ccc3c(c2)B(O)OC3)cc1 (centres undefined) | > 100 |  |
| C[Si](C)(C)CSc1ccc(C(O)c2ccc3c(c2)B(O)OC3)cc1 (centres undefined) | 13.3 |  |
| CSc1ccccc1C(O)c1ccc2c(c1)B(O)OC2 (centres undefined) | 57.1 |  |
| CC1(C)S[C@@H]2[C@H](NC(=O)[C@H](N)c3ccccc3)C(=O)N2[C@H]1C(=O)O [AMPICILLIN] |  | 0.125 µg/mL (≈ 0.358 µM) |
| COc1ccc(C(O)c2ccc3c(c2)B(O)OC3)cc1OC (centres undefined) | 67.8 |  |
| CC(C)(C)OC(=O)NCCSc1ccc(C(O)c2ccc3c(c2)B(O)OC3)cc1 (centres undefined) | 70.2 |  |
| OB1OCc2ccc(C(O)c3ccc(SC(F)(F)F)cc3)cc21 (centres undefined) | 25.7 |  |
| CS(=O)(=O)c1ccc(C(O)c2ccc3c(c2)B(O)OC3)cc1 (centres undefined) | 32.5 |  |
| COc1ccc(C(O)c2ccc3c(c2)B(O)OC3)cc1 (centres undefined) | 23.2 |  |
| COC(=O)c1ccc(C(O)c2ccc3c(c2)B(O)OC3)cc1 (centres undefined) | 18.5 |  |
| OB1OCc2ccc(C(O)c3cccc(F)c3)cc21 (centres undefined) | 56.1 |  |
| CSc1cccc(C(O)c2ccc3c(c2)B(O)OC3)c1 (centres undefined) | 23.9 |  |
| COc1cc(C(O)c2ccc3c(c2)B(O)OC3)cc(OC)c1OC (centres undefined) | > 640 |  |
| O=Cc1cc(C(O)c2ccc3c(c2)B(O)OC3)ccc1F (centres undefined) | 66.8 |  |
| OB1OCc2ccc(C(O)c3ccc(SCc4ccccc4)cc3)cc21 (centres undefined) | 27.5 |  |
| O=Cc1ccc(C(O)c2ccc3c(c2)B(O)OC3)cc1 (centres undefined) | 12.8 |  |
| CC(=O)c1ccc(C(O)c2ccc3c(c2)B(O)OC3)cc1 (centres undefined) | 11 |  |
| COc1cccc(C(O)c2ccc3c(c2)B(O)OC3)c1 (centres undefined) | 50.8 |  |

Other lines, results leading:

| IC50 [1] [µM] | MIC (Streptococcus pneumoniae) | Compound |
| --- | --- | --- |
| 3.63 |  | OB1OCc2ccc(C(O)c3ccc(SCC(F)(F)F)cc3)cc21 (centres undefined) |
| 4.86 | inactive | OB1OCc2ccc(C(O)c3ccc(F)cc3)cc21 (centres undefined) |
| 3.77 | 16 µg/mL (≈ 51.6 µM) | C#CCSc1ccc(C(O)c2ccc3c(c2)B(O)OC3)cc1 (centres undefined) |
| 10.2 |  | NC(=O)CSc1ccc(C(O)c2ccc3c(c2)B(O)OC3)cc1 (centres undefined) |
| 10.3 |  | OB1OCc2ccc(C(O)c3ccc(N4CCOCC4)cc3)cc21 (centres undefined) |
| 5.75 | 32 µg/mL (≈ 104 µM) | OB1OCc2ccc(C(O)c3ccc(C(F)(F)F)cc3)cc21 (centres undefined) |
| 3.95 | 32 µg/mL (≈ 112 µM) | CSc1ccc(C(O)c2ccc3c(c2)B(O)OC3)cc1 (centres undefined) |
| 7.17 |  | OB1OCc2ccc(C(O)c3ccc(SCc4ccncc4)cc3)cc21 (centres undefined) |
| 7.63 |  | CCOC(=O)CC(=O)CSc1ccc(C(O)c2ccc3c(c2)B(O)OC3)cc1 (centres undefined) |
| 8.76 |  | OB1OCc2ccc(C(O)c3ccc(SCC4CCCCC4)cc3)cc21 (centres undefined) |
| 0.368 | 8 µg/mL (≈ 29.4 µM) | OB1OCc2ccc(C(O)c3ccc(S)cc3)cc21 (centres undefined) |
| 3.89 | 8 µg/mL (≈ 25.7 µM) | N#CCSc1ccc(C(O)c2ccc3c(c2)B(O)OC3)cc1 (centres undefined) |
| 0.95 | 6 µg/mL (≈ 18.3 µM) | CC(=O)CSc1ccc(C(O)c2ccc3c(c2)B(O)OC3)cc1 (centres undefined) |
| 7 |  | CC(=O)COc1ccc(C(O)c2ccc3c(c2)B(O)OC3)cc1 (centres undefined) |
| 4.63 | 8 µg/mL (≈ 30.1 µM) | C=Cc1ccc(C(O)c2ccc3c(c2)B(O)OC3)cc1 (centres undefined) |
| 5.76 |  | COCCSc1ccc(C(O)c2ccc3c(c2)B(O)OC3)cc1 (centres undefined) |
| 2.13 | 10 µg/mL (≈ 41.7 µM) | OB1OCc2ccc(C(O)c3ccccc3)cc21 (centres undefined) |
| 8.14 |  | N#Cc1ccc(C(O)c2ccc3c(c2)B(O)OC3)cc1 (centres undefined) |
| 8.27 |  | C=CCSc1ccc(C(O)c2ccc3c(c2)B(O)OC3)cc1 (centres undefined) |
| 7.16 |  | O=[N+]([O-])c1ccc(CSc2ccc(C(O)c3ccc4c(c3)B(O)OC4)cc2)cc1 (centres undefined) |
| 2.15 |  | O=C(O)CSc1ccc(C(O)c2ccc3c(c2)B(O)OC3)cc1 (centres undefined) |
| 5.48 | 4 µg/mL (≈ 12.7 µM) | OB1OCc2ccc(C(O)c3ccc(-c4ccccc4)cc3)cc21 (centres undefined) |
| 7.44 |  | OB1OCc2ccc(C(O)c3ccc(Cl)cc3)cc21 (centres undefined) |
